Results as given in patent US12331022B2, “Spiropiperidine allosteric modulators of nicotinic acetylcholine receptors” (Merck Sharp & Dohme LLC, priority 2019, dated 2025).
Like-named read-outs stand apart in the source and are kept apart here.

Molecular target: T1, human α7 nAChR (Homo sapiens, UniProt P36544)
T1 construct: host or cells: HEK
Experiment: Automated patch-clamp electrophysiology functional assay (Assay A)
Format: cell-based
Conditions: HEK cell line stably expressing human RIC-3 and human α7, IonFlux HT whole-cell population patch, with or without 40 μM acetylcholine
Method: The α7 nAChR positive allosteric modulator (PAM) activity of the present compounds may be tested using assays known in the art. The α7 nAChR PAMs described herein have activities in an automated patch-clamp electrophysiology functional assay as described in the examples. The assay was performed using the IonFlux HT in a whole-cell, population patch configuration. See Golden et al. Assay Drug Dev. Technol. (2011) 9:608-619. The compounds were assessed for their ability to modulate the function of the human α7 nAChR stably expressed in a HEK cell line both in the presence, and in the absence of the natural α7 agonist acetylcholine. By performing a series of such measurements at different concentrations, the effective concentration of the α7 nAChR PAMs (EC50) was determined. See Spencer et al. Assay Drug Dev. Technol. (2012) 10:313-324.
Direct activation of α7 (agonism), and potentiation of acetylcholine-evoked α7 currents was determined as follows:
Automated patch-clamp electrophysiology was performed using the IonFlux HT (Fluxion Biosciences Inc., San Francisco, CA) in the whole-cell, population patch configuration. Test compounds were assessed for their ability to modulate the function of the α7 nicotinic acetylcholine receptor both in the presence, and in the absence of the natural α7 agonist acetylcholine. A HEK cell line stably expressing both human RIC-3 and human α7 (PrecisION hnAChR α7/RIC-3, Eurofins Pharma, St. Charles, MO) was cultured in 175 cm^2 triple-layer tissue culture flasks to no more than 90% confluency in DMEM/F-12 growth media supplemented with 10% heat-inactivated fetal bovine serum, 1% non-essential amino acids, 0.625 μg/mL Puromycin, and 400 μg/mL Geneticin. Immediately prior to assay, cells were detached by first aspirating growth media, rinsing with Dulbecco's phosphate buffered saline, and then adding 10 mL of Accutase (Innovative Cell Technologies, San Diego, CA) to the flask and then incubating at 37° C. for 5 minutes. Detached cells were then recovered by the addition of 40 mL of CHO-serum-free media supplemented with 25 mM HEPES, and rocked gently in a 50 mL conical tube for 20 minutes prior to patch-clamp assay. After recovery, cells were pelleted by centrifugation at 1,000 RPM for 1 minute in a compact bench top centrifuge; recovery media was aspirated and cells were resuspended in external recording solution (150 mM NaCl, 5 mM KCl, 2 mM CaCl2, 1 mM MgCl2, 10 mM HEPES, 12 mM dextrose) to a density of 5.0×10^6 cells/mL. The cell suspension was added to the cell inlet wells on an IonFlux HT population patch plate which had previously been rinsed and primed with deionized H2O. Test compounds were serially diluted in DMSO and then resuspended to the final test concentration in external recording solution, with, or without 40 μM acetylcholine added to the external recording solution; test compounds were then transferred to the IonFlux HT population patch plate. Internal recording solution (110 mM TrisPO4, 28 mM TrisBase, 0.1 mM CaCl2, 2 mM MgCl2, 11 mM EGTA, 4 mM MgATP) was added to the internal recording solution inlet wells on the IonFlux HT patch plate previously loaded with cells and test compounds, and the plate loaded into the IonFlux HT instrument. A protocol was executed on the IonFlux HT to trap the cells, break into the cells, and establish the whole-cell recording configuration; cells were voltage-clamped at a holding potential of −60 mV for the duration of the experiment, all experiments were conducted at room temperature, and the IonFlux HT injection pressure was 8 psi for solution applications. Upon establishing the whole-cell configuration, external recording solution was perfused into the recording chambers for 120 seconds and then 40 μM acetylcholine was applied for 1 second and immediately washed off with external recording solution for 60 seconds. […]

T1 sequence (P36544 23-502): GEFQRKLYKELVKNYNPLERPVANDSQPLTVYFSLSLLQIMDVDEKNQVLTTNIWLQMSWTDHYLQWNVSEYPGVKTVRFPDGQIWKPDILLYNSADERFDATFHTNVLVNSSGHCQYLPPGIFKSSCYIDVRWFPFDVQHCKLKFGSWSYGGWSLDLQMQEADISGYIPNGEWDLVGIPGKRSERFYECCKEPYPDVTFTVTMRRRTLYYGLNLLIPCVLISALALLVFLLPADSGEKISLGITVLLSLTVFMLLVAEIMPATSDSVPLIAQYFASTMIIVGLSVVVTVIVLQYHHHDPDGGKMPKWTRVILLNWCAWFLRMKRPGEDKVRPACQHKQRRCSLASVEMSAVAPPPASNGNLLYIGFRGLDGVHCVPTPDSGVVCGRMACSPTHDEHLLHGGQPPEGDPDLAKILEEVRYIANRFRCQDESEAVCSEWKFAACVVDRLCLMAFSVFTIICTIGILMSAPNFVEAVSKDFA

| EC50 (read-out: α7 nAChR EC50) [nM] | EC50 (read-out: α7 nAChR Potency) [nM] | Structure (SMILES) |
| --- | --- | --- |
| 69 | ≤ 100 | NS(=O)(=O)N1CCC2(CC1)C[C@H]2COc1cccc(-c2ccccc2)n1 [Example A57, (1R)-1-{[(6-phenylpyridin-2-yl)oxy]methyl}-6-azaspiro[2.5]octane-6-sulfonamide] |
| 480 | 100 to 500 | CC(C)(O)c1cccc(OC[C@@H]2CC23CCN(S(N)(=O)=O)CC3)n1 [Example A52, (1R)-1-({[6-(2-hydroxypropan-2-yl)pyridin-2-yl]oxy}methyl)-6-azaspiro[2.5]octane-6-sulfonamide] |
| 11 | ≤ 100 | Cc1ccc(C)c(NC[C@@H]2C(F)(F)C23CCN(S(N)(=O)=O)CC3)c1 [Example A60, (2R)-2-{[(2,5-dimethylphenyl)amino]methyl}-1,1-difluoro-6-azaspiro[2.5]octane-6-sulfonamide] |
| 1900 | 500 to 5000 | NS(=O)(=O)N1CCC2(CC1)C(/C=C/c1ccc(F)cc1C(F)(F)F)C2(F)F (stereo not drawn) [Example 19, 1,1-Difluoro-2-{(E)-2-[4-fluoro-2-(trifluoromethyl)phenyl]ethenyl}-6-azaspiro[2.5]octane-6-sulfonamide] |
| 58 | ≤ 100 | NS(=O)(=O)N1CCC2(CC1)C(COc1cccc(OCC(F)(F)F)c1)C2(F)F (single isomer, unassigned) [Example A30, 1,1-difluoro-2-{[3-(2,2,2-trifluoroethoxy)phenoxy]methyl}-6-azaspiro[2.5]octane-6-sulfonamide] |
| 550 | 500 to 5000 | NS(=O)(=O)N1CCC2(CC1)C(COc1ccnc(OCC(F)(F)F)c1)C2(F)F (single isomer, unassigned) [Example A34, 1,1-difluoro-2-({[2-(2,2,2-trifluoroethoxy)pyridin-4-yl]oxy}methyl)-6-azaspiro[2.5]octane-6-sulfonamide] |
| 90 | ≤ 100 | Cn1nc(C(F)(F)F)cc1OCC1C(F)(F)C12CCN(S(N)(=O)=O)CC2 (single isomer, unassigned) [Example A11, 1,1-difluoro-2-({[1-methyl-3-(trifluoromethyl)-1H-pyrazol-5-yl]oxy}methyl)-6-azaspiro[2.5]octane-6-sulfonamide] |
| 48 | ≤ 100 | COc1ccc(Cl)cc1NC[C@@H]1CC12CCN(S(N)(=O)=O)CC2 [Example 14, (1R)-1-{[(5-Chloro-2-methoxyphenyl)amino]methyl}-6-azaspiro[2.5]octane-6-sulfonamide] |
| – | 500 to 5000 | NS(=O)(=O)N1CCC2(CC1)C[C@H]2C(=O)Nc1cccc(Cl)c1 [Example B2, (1R)—N-(3-chlorophenyl)-6-sulfamoyl-6-azaspiro[2.5]octane-1-carboxamide] |

The next lines start with the compound.

| Structure (SMILES) | EC50 (read-out: α7 nAChR EC50) [nM] | EC50 (read-out: α7 nAChR Potency) [nM] |
| --- | --- | --- |
| COc1ccc(Cl)cc1NC(=O)[C@H]1C(F)(F)C12CCN(S(N)(=O)=O)CC2 [Example B3, (1S)—N-(5-chloro-2-methoxyphenyl)-2,2-difluoro-6-sulfamoyl-6-azaspiro[2.5]octane-1-carboxamide] | 1400 | 500 to 5000 |
| NS(=O)(=O)N1CCC2(CC1)C[C@@H]2COc1noc(-c2ccccc2)n1 [Example A13, (1S)-1-{[(5-phenyl-1,2,4-oxadiazol-3-yl)oxy]methyl}-6-azaspiro[2.5]octane-6-sulfonamide] | 4100 | 500 to 5000 |
| NS(=O)(=O)N1CCC2(CC1)C[C@H]2COc1cccc(OCC(F)(F)F)n1 [Example A37, (1R)-1-({[6-(2,2,2-trifluoroethoxy)pyridin-2-yl]oxy}methyl)-6-azaspiro[2.5]octane-6-sulfonamide] | 74 | ≤ 100 |
| CCOc1cccc(OC[C@@H]2CC23CCN(S(N)(=O)=O)CC3)n1 [Example A54, (1R)-1-{[(6-ethoxypyridin-2-yl)oxy]methyl}-6-azaspiro[2.5]octane-6-sulfonamide] | 450 | 100 to 500 |
| NS(=O)(=O)N1CCC2(CC1)C[C@H]2COCc1cccc(OCC(F)(F)F)n1 [Example 9, (1R)-1-({[6-(2,2,2-Trifluoroethoxy)pyridin-2-yl]methoxy}methyl)-6-azaspiro[2.5]octane-6-sulfonamide] | 1200 | 500 to 5000 |
| NS(=O)(=O)N1CCC2(CC1)C[C@H]2COc1cccnc1OCC(F)(F)F [Example 8, (1R)-1-({[2-(2,2,2-Trifluoroethoxy)pyridin-3-yl]oxy}methyl)-6-azaspiro[2.5]octane-6-sulfonamide] | 1200 | 500 to 5000 |
| CC(F)(F)c1cccc(OC[C@@H]2CC23CCN(S(N)(=O)=O)CC3)n1 [Example A56, (1R)-1-({[6-(1,1-difluoroethyl)pyridin-2-yl]oxy}methyl)-6-azaspiro[2.5]octane-6-sulfonamide] | 740 | 500 to 5000 |
| NS(=O)(=O)N1CCC2(CC2COc2noc(-c3ccccc3)n2)C(F)(F)C1 (racemic) [Example A22, 4,4-difluoro-1-{[(5-phenyl-1,2,4-oxadiazol-3-yl)oxy]methyl}-6-azaspiro[2.5]octane-6-sulfonamide] | 3100 | 500 to 5000 |
| NS(=O)(=O)N1CCC2(CC1)C(COc1ccc(F)cc1C(F)(F)F)C2(F)F (single isomer, unassigned) [Example A10, 1,1-difluoro-2-{[4-fluoro-2-(trifluoromethyl)phenoxy]methyl}-6-azaspiro[2.5]octane-6-sulfonamide] | 1500 | 500 to 5000 |
| NS(=O)(=O)N1CCC2(CC1)C(COc1cccc(OC(F)F)c1)C2(F)F (single isomer, unassigned) [Example A28, 2-{[3-(difluoromethoxy)phenoxy]methyl}-1,1-difluoro-6-azaspiro[2.5]octane-6-sulfonamide] | 37 | ≤ 100 |
| NS(=O)(=O)N1CCC2(CC2COc2cccc(OCC(F)(F)F)n2)C(F)(F)C1 (racemic) [Example A39, 4,4-difluoro-1-({[6-(2,2,2-trifluoroethoxy)pyridin-2-yl]oxy}methyl)-6-azaspiro[2.5]octane-6-sulfonamide] | 310 | 100 to 500 |
| NS(=O)(=O)N1CCC2(CC1)C(CCc1ccc(F)cc1C(F)(F)F)C2(F)F (stereo not drawn) [Example 18, 1,1-Difluoro-2-{2-[4-fluoro-2-(trifluoromethyl)phenyl]ethyl}-6-azaspiro[2.5]octane-6-sulfonamide] | – | 5000 to 50000 |
| COc1ccccc1NC(=O)[C@@H]1CC12CCN(S(N)(=O)=O)CC2 [Example B1, (1R)—N-(2-methoxyphenyl)-6-sulfamoyl-6-azaspiro[2.5]octane-1-carboxamide] | 1400 | 500 to 5000 |
| CN1CCN(c2cccc(OC[C@@H]3CC34CCN(S(N)(=O)=O)CC4)n2)CC1 [Example A46, (1R)-1-({[6-(4-methylpiperazin-1-yl)pyridin-2-yl]oxy}methyl)-6-azaspiro[2.5]octane-6-sulfonamide] | – | 500 to 5000 |
| COc1ccc(Cl)cc1NC(=O)[C@@H]1CC12CCN(S(N)(=O)=O)CC2 [Example 13, (1R)—N-(5-Chloro-2-methoxyphenyl)-6-sulfamoyl-6-azaspiro[2.5]octane-1-carboxamide] | 200 | 100 to 500 |
| COc1ccc(Cl)cc1S(=O)(=O)C[C@@H]1CC12CCN(S(N)(=O)=O)CC2 [Example 12, (1R)-1-{[(5-Chloro-2-methoxyphenyl)sulfonyl]methyl}-6-azaspiro[2.5]octane-6-sulfonamide] | 1600 | 500 to 5000 |
| CS(=O)(=O)c1cccc(OC[C@@H]2CC23CCN(S(N)(=O)=O)CC3)n1 [Example A45, (1R)-1-({[6-(methylsulfonyl)pyridin-2-yl]oxy}methyl)-6-azaspiro[2.5]octane-6-sulfonamide] | – | 5000 to 50000 |
